One series has as its target T1, USP30 (Homo sapiens, UniProt Q70CQ3).
T1 construct: purchased Boston Biochem E582
T1 sequence (Q70CQ3 57-517 limits assumed): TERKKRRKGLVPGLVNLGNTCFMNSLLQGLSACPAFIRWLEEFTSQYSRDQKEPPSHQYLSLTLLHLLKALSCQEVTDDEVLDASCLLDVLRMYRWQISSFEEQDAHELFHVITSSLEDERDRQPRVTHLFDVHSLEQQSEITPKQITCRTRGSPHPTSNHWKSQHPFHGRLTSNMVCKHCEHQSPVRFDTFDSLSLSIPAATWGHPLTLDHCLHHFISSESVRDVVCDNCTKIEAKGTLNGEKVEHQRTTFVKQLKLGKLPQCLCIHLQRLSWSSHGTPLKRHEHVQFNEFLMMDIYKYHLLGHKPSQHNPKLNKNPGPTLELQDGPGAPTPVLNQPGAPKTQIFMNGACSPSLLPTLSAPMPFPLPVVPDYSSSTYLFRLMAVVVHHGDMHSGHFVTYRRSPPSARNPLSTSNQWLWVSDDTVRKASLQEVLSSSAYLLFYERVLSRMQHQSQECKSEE
Briefly: USP30 biochemical IC50 assay (fluorescence polarisation). The method, then:
Dilution plates were prepared at 21 times the final concentration (2100 μM for a final concentration of 100 μM) in 50% DMSO in a 96-well polypropylene V-bottom plate (Greiner #651201). A typical 8-point dilution series would be 100, 30, 10, 3, 1, 0.3, 0.1, 0.03 μM final. Reactions were performed in duplicate in black 384 well plates (small volume, Greiner 784076) in a final reaction volume of 21 μl. Either 1 μl of 50% DMSO or diluted compound was added to the plate. USP30 (Boston Biochem #E582) was diluted in reaction buffer (40 mM Tris, pH 7.5, 0.005% Tween 20, 0.5 mg/ml BSA, 5 mM beta-mercaptoethanol) to achieve a final assay concentration of 4 nM, and 10 μl of diluted USP30 was added to the compound. Enzyme and compound were incubated for 30 min at room temp. Reactions were initiated by the addition of 50 nM of TAMRA labelled peptide linked to ubiquitin via an iso-peptide bond as fluorescence polarisation substrate. Reactions were read immediately after addition of substrate and following a 2-hour incubation at room temperature. Readings were performed on a Pherastar Plus (BMG Labtech). λ Excitation 540 nm; λ Emission 590 nm.
Background: In fluorescence polarisation assays a small probe gives low polarisation when free and higher when bound to something large.

The next series deals with Cathepsin B (Homo sapiens, UniProt P07858). As to the kind of experiment: Cathepsin B IC50. The class given is biochemical.
Series [1] concerns USP2, USP6, USP10, USP16, USP21, USP22, USP25, USP28. As to the kind of experiment: DUB selectivity panel IC50. The series is classed as biochemical.
The target in the next series is Cathepsin L (Homo sapiens, UniProt P07711). Briefly: Cathepsin L IC50. The class given is biochemical.
The target in the next series is Cathepsin V (Homo sapiens, UniProt O60911). Briefly: Cathepsin V IC50. The class given is biochemical.
The next series concerns the target T2, UCHL1 (Homo sapiens, UniProt P09936).
T2 sequence (P09936 1-223): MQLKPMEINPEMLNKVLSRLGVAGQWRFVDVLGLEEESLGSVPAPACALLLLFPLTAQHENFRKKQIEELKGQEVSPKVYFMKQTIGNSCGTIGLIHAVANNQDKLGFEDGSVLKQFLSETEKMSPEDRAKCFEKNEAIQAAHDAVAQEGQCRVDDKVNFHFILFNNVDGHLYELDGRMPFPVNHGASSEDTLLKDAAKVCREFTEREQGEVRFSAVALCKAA
Briefly: UCHL1 DUB IC50. The series is classed as biochemical.

Another series has as its system mouse hepatocytes. As to the kind of experiment: Hepatocyte Cl mouse. The series is classed as in vitro ADME. The method, then: Hep Cl mouse: in vitro hepatocyte clearance in mouse cells.
Clu: in vitro clearance. Clu as defined here is the scaled clearance, in turn calculated from the intrinsic clearance. The intrinsic clearance is the predicted clearance due to hepatic metabolic reactions, determined from incubation of a compound in a hepatocyte preparation.

Another series can be described thus: Mouse plasma stability. Conditions: mouse plasma; read-out: Stability Mouse plasma t1/2. The class given is in vitro ADME.
The test system of the next series is Cathepsins B, K, L, S, V. Briefly: Cathepsin panel IC50 (summary over B, K, L, S, V). The series is classed as biochemical. Conditions: for IC50: range over the five cathepsins.
A further series has as its target T3, Cathepsin K (Homo sapiens, UniProt P43235).
T3 sequence (P43235 115-329): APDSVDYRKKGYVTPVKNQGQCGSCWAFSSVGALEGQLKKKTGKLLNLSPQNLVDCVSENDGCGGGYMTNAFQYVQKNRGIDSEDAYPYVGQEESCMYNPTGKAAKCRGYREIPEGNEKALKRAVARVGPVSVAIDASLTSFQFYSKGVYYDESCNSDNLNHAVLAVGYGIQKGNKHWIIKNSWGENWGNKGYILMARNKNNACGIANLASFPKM
As to the kind of experiment: Cathepsin K IC50. The series is classed as biochemical.

Another series has as its target Cathepsin S (Homo sapiens, UniProt P25774). As to the kind of experiment: Cathepsin S IC50. The series is classed as biochemical.
[2] abbreviates: USP30 biochemical IC50 assay, read-out: USP30 IC50.
Where [3] appears, read: range over the eight DUBs, read-out: DUB IC50 (μM) USP2, USP6, USP10, USP16, USP21, USP22, USP25, USP28.
[4] abbreviates: read-out: Cathepsin IC50 (μM) Cathepsin L.
The mark [5] stands for this setting: read-out: Cathepsin IC50 (μM) B, K, L, S, V.

From patent US20230219939A1, “N-(1-CYANO-PYRROLIDIN-3-YL)-5-(3-(TRIFLUOROMETHYL)PHENYL)OXAZOLE-2-CARBOXAMIDE DERIVATIVES AND THE CORRESPONDING OXADIAZOLE DERIVATIVES AS USP30 INHIBITORS FOR THE TREATMENT OF MITOCHONDRIAL DYSFUNCTION” (MISSION THERAPEUTICS LIMITED, priority 2020, published 2023) come the findings set out here.

For orientation: IC50 means the midpoint of a concentration-inhibition curve.

Molecules are shown by their SMILES. Where “and” joins values, the source holds several entries; their conditions need not be identical. Equal entries are not always repeated. Where two headings read alike, the source gives them in different places. Where only a bound is given, the exact number is not on record here.

Chain of Cathepsin V (O60911 114-334, species assumed): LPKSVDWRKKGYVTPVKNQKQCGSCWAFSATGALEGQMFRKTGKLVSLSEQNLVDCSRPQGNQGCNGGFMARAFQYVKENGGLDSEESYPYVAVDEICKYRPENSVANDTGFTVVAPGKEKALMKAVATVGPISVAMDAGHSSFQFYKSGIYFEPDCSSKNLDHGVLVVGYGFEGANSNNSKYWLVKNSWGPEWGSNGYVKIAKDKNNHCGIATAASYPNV
Chain of Cathepsin L (P07711 114-333, species assumed): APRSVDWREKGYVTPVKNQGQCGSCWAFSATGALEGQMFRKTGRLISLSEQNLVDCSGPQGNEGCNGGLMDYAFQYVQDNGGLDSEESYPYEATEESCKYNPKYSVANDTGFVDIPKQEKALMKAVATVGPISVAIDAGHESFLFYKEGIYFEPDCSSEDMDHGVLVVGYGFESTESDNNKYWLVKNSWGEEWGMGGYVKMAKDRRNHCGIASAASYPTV
Chain of Cathepsin S (P25774 115-331, species assumed): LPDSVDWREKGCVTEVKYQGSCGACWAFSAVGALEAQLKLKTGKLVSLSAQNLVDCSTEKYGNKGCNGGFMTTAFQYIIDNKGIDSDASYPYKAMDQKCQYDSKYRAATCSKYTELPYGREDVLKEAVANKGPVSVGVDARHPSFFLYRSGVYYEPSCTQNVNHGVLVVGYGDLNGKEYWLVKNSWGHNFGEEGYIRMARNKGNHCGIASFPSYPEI

Consider `COC[C@@H]1C[C@@H](NC(=O)c2nnc(-c3cc(C(F)(F)F)ccc3OC)o2)CN1C#N` [Example 10, N-((3R,5S)-1-Cyano-5-(methoxymethyl)pyrrolidin-3-yl)-5-(2-methoxy-5-(trifluoromethyl)phenyl)-1,3,4-oxadiazole-2-carboxamide], for which, on USP30 (setting [2]), the IC50 is 0.041 µM.
Regarding `C[C@@H]1C[C@@H](NC(=O)c2nnc(-c3cc(C(F)(F)F)ccc3OC3CC3)o2)CN1C#N` [Example 6, N-((3R,5R)-1-Cyano-5-methylpyrrolidin-3-yl)-5-(2-cyclopropoxy-5-(trifluoromethyl)phenyl)-1,3,4-oxadiazole-2-carboxamide], on USP30 (setting [2]), the IC50 was 0.073 µM.
As for `COC[C@@H]1C[C@@H](NC(=O)c2nnc(-c3cccc(C(F)(F)F)c3)o2)CN1C#N` [Example 8, N-((3R,5S)-1-Cyano-5-(methoxymethyl)pyrrolidin-3-yl)-5-(3-(trifluoromethyl)phenyl)-1,3,4-oxadiazole-2-carboxamide], the IC50 at Cathepsin B was 116 µM; in [1] (setting [3]), 4.6 to 78.9 µM; at Cathepsin L (setting [4]), > 30 µM; against Cathepsin V, > 30 µM; against UCHL1, > 300 µM; on USP30 (setting [2]), 0.038 µM. The IC50 on USP30 (read-out: DUB IC50 (μM) USP30) was 0.038 µM and 0.004 to 0.033 µM.
Take `N#CN1CC[C@@H](NC(=O)c2cc(-c3ccc(C(F)(F)F)cc3)no2)C1` [Reference Example A, reference compound]: the “Hepatocyte Cl mouse Scaled Clu” value in the series with mouse hepatocytes stood at 118 mL/min/kg. Besides, the half-life in “Mouse plasma stability” was > 120 min. Further, the IC50 is 0.85 µM against Cathepsin B; 0.81 to 3 µM in series [1] (range over seven DUBs, exc. USP6, read-out: DUB IC50 (μM) USP2, USP6, USP10, USP16, USP21, USP22, USP25, USP28 (exc. USP6)); 2.1 µM on Cathepsin L (read-out: Cathepsin IC50 (μM) Cathepsin U); ≥ 0.73 µM in the series on Cathepsins B, K, L, S, V (read-out: Cathepsin IC50 (μM) B, K, U, S, V); 7.2 µM against Cathepsin V; 0.12 µM at USP30 (setting [2]). The IC50 on USP30 (read-out: DUB IC50 (μM) USP30) was 0.12 µM.
For `COC[C@@H]1C[C@@H](NC(=O)c2nnc(-c3cc(C(F)(F)F)ccc3Cl)o2)CN1C#N` [Example 11, 5-(2-Chloro-5-(trifluoromethyl)phenyl)-N-((3R,5S)-1-cyano-5-(methoxymethyl)pyrrolidin-3-yl)-1,3,4-oxadiazole-2-carboxamide], the IC50 was > 300 µM at UCHL1, 0.022 µM at USP30 (setting [2]) and 0.004 to 0.033 µM at USP30 (read-out: DUB IC50 (μM) USP30).
For the molecule `C[C@@H]1C[C@@H](NC(=O)c2ncc(-c3cccc(C(F)(F)F)c3)o2)CN1C#N` [Example 2, N-((3R,5R)-1-cyano-5-methylpyrrolidin-3-yl)-5-(3-(trifluoromethyl)phenyl)oxazole-2-carboxamide], the IC50 was 79 µM at Cathepsin B; 17.2 to 108 µM in series [1] (setting [3]); 7.9 µM at Cathepsin L (setting [4]); 56 µM at Cathepsin V; 280 µM against UCHL1; 0.008 µM on USP30 (setting [2]). Moreover, at USP30 (read-out: DUB IC50 (μM) USP30), the IC50 came to 0.008 µM.
On to `COC[C@@H]1C[C@@H](NC(=O)c2ncc(-c3cc(C(F)(F)F)ccc3OC3CC3)o2)CN1C#N` [Example 9, N-((3R,5S)-1-cyano-5-(methoxymethyl)pyrrolidin-3-yl)-5-(2-cyclopropoxy-5-(trifluoromethyl)phenyl)-oxazole-2-carboxamide], for which the IC50 at Cathepsin B was > 300 µM; in [1] (setting [3]), 2.9 to 135 µM; at Cathepsin L (setting [4]) it was 18.2 µM; with Cathepsins B, K, L, S, V (setting [5]) it was ≥ 9.9 µM; against Cathepsin V it was 101 µM; at UCHL1 it was > 300 µM. Moreover, the IC50 was 0.004 µM on USP30 (setting [2]); 0.004 µM and 0.004 to 0.033 µM on USP30 (read-out: DUB IC50 (μM) USP30).
As for `N#CN1CC[C@H](C(=O)Nc2ncc(-c3ccccc3)s2)C1` [C, reference compound], the “fold more potent against USP30 than UCHL1” value on UCHL1 is reported as 0.8 fold.
As to `COC[C@H]1C[C@@H](NC(=O)c2ncc(-c3cccc(C(F)(F)F)c3)o2)CN1C#N` [Example 12, N-((3R,5R)-1-Cyano-5-(methoxymethyl)pyrrolidin-3-yl)-5-(3-(trifluoromethyl)phenyl)oxazole-2-carboxamide], the IC50 was > 30 µM against Cathepsin K; > 300 µM at Cathepsin B; > 30 µM at Cathepsin S; > 300 µM in [1] (setting [3]); > 30 µM at Cathepsin L (setting [4]); > 30 µM in the series with Cathepsins B, K, L, S, V (setting [5]). Besides, the IC50 against Cathepsin V is > 30 µM; at UCHL1 it was 149 µM; at USP30 (setting [2]), 0.015 µM; at USP30 (read-out: DUB IC50 (μM) USP30), 0.015 µM. Besides, the “DUB selectivity preference for USP30 v 8 DUBs” value in series [1] is listed as >20000. For the same molecule, the “Selectivity preference for USP30 v cathepsins” value with Cathepsins B, K, L, S, V is recorded as >2000. At UCHL1, the “DUB selectivity preference for USP30 v UCHL1” value amounted to 9933.
`COC[C@@H]1C[C@@H](NC(=O)c2nnc(-c3cc(C(F)(F)F)ccc3OC3CC3)o2)CN1C#N` [Example 5, N-((3R,5S)-1-Cyano-5-(methoxymethyl)pyrrolidin-3-yl)-5-(2-cyclopropoxy-5-(trifluoromethyl)phenyl)-1,3,4-oxadiazole-2-carboxamide]: the IC50 on USP30 (setting [2]) was 0.041 µM.
The same measure, in the same setting: the result for `N#CN1C[C@H](NC(=O)c2ncc(-c3cccc(C(F)(F)F)c3)o2)C[C@H]1Cn1ccnn1` [Example 4, N-((3R,5S)-5-((1H-1,2,3-Triazol-1-yl)methyl)-1-cyanopyrrolidin-3-yl)-5-(3-(trifluoromethyl)phenyl) oxazole-2-carboxamide] reads 0.004 µM.
Consider `CC1CC(C(=O)Nc2ncc(-c3ccccc3)s2)CN1C#N` (stereo not drawn) [Reference Example D, reference compound], for which, at UCHL1, the “fold more potent against USP30 than UCHL1” value is 1.5 fold.
With `C[C@@H]1C[C@@H](NC(=O)c2nnc(-c3cccc(C(F)(F)F)c3)o2)CN1C#N` [Example 7, N-((3R,5R)-1-Cyano-5-methylpyrrolidin-3-yl)-5-(3-(trifluoromethyl)phenyl)-1,3,4-oxadiazole-2-carboxamide], the IC50 at UCHL1 was > 300 µM; at USP30 (setting [2]), 0.033 µM; on USP30 (read-out: DUB IC50 (μM) USP30), 0.004 to 0.033 µM.
In the case of `CS(=O)(=O)C[C@@H]1C[C@@H](NC(=O)c2ncc(-c3cccc(C(F)(F)F)c3)o2)CN1C#N` [Example 3, N-((3R,5S)-1-Cyano-5-((methylsulfonyl)methyl)pyrrolidin-3-yl)-5-(3-(trifluoromethyl)phenyl)-oxazole-2-carboxamide], on USP30 (setting [2]), the IC50 amounted to 0.003 µM.
